{"source": "patent US20260035340A1", "about": "“INHIBITORS OF AKR1C3 AND METHODS OF USE” (BOARD OF REGENTS OF THE UNIVERSITY OF NEBRASKA, priority 2022, published 2026)", "key": {"[1]": {"experiment": "In vitro stability in simulated intestinal fluid (SIF)", "type": "in vitro ADME", "conditions": "SIF for 2 h", "experimental": "(§1) In vitro stability studies: Gastrointestinal (GI) fluid stability studies were performed in simulated gastric fluid (SGF) and simulated intestinal fluid (SIF). All the required media were prepared according to the USP guidelines. Mouse plasma stability were performed for neat-spiked and plasma spiked samples (pre-extraction) at 37° C. for 4 h. In addition to the analyte stability in matrix, at 48 h stability of the extracted samples was performed at 4° C. in the autosampler."}, "[2]": {"experiment": "In vivo pharmacokinetic study, oral gavage", "design": "species or system BALB/c mice", "description": "(§2) Liquid chromatography and mass spectrometry (LCMS/MS): The ultra-performance liquid chromatography mass spectrometry system (UPLC-MS/MS) consisted of a Shimadzu 8060NX mass spectrometer and Nexera Series UPLC (Shimadzu Scientific Instruments, Columbia, MD). Analyte separation was achieved utilizing an Acquity UPLC® BEH column (C18, 2.1×100 mm, 1.7 μm) equipped with an Acquity UPLC C18 guard column (Waters, Inc. Milford MA). The mobile phase consisted of water containing 0.1% formic acid (mobile phase A) and methanol (mobile phase B) at a flow rate of 0.25 mL/min operated at room temperature. The total run time was set to last 7.5 min with a gradient elution as follows: 35% B, increasing to 95% B over 3.5 minutes, then held constant for 3.0 minutes, and finally brought back to the initial condition of 35% B in 0.20 minutes followed by 1-minute re-equilibration. The injection volume (2 μL) was consistent for all samples. The auto-sampler chamber was maintained at 4° C. throughout the analysis.\nThe MS/MS system was operated at unit resolution in the multiple reaction monitoring (MRM) in positive ESI mode, using precursor ion>product ion combinations of 427.20>105.10 for A1-r and 413.15>265.10 m/z for 4r. The mass spectrometer source settings were optimized to the following: nebulizer gas: 2.0 L/min; heating gas: 10 L/min; drying gas: 10 L/min; interface temperature: 300° C.; desolvation line temperature: 250° C.; heat block temperature: 400° C. Data acquisition and quantitation were performed using LabSolutions software Ver.5.99 (Shimadzu Scientific Inc, Columbia, MD).\n(§3) Plasma sample preparation: Plasma samples were prepared by spiking 5 μL of the appropriate calibration (CC) and quality (QCs) control working stock into a 45 μL blank mouse plasma. The concentration of the CC ranged from 0.2-1000 ng/mL with the final concentrations of 0.2, 0.5, 1, 5, 10, 50, 100, 500, and 1000 ng/mL. A simple protein precipitation technique using Phree 96 well phospholipid elimination plate (Phenomenex Inc, Torrance CA.) was utilized to isolate analyte from the plasma matrix. The CC, QCs and study plasma samples were added to Phree 96 well plate and spiked with 10 μL of IS a working solution. The precipitation of the matrix proteins was carried out using 300 μL of ice-cold acetonitrile. The plate was again vortexed on mixmate at 950 rpm for 2 min followed by applied 5 psi positive pressure for 10 min (Resprep VM-96 Vacuum Manifold for 96-Well Plates, Catalog #25858) (Restek; Bellefonte, PA) to collect the supernatant. Two microliters of the reconstituted sample was injected into LC-MS/MS for analysis.\nIn vivo pharmacokinetic studies: Animal studies were approved by the University of Nebraska Medical Center (UNMC) Institutional Animal Care and Use Committee (IACUC protocol number 17-046-06-FC). BALB/c mice were purchased from Charles River Labs. Pharmacokinetic (PK) studies of A1-r and 4r were conducted in BALB/c mice. Animals were housed in the University of Nebraska Medical Center animal facility, for at least 7 days prior to the experiments, in order to acclimatize the animals to the laboratory conditions, at a temperature of 23-24° C., relative humidity of 40-70% and 12/12 h light/dark cycles with free access to food and water. The dosing solution was made of DMSO-Polyethylene glycol 400 (PEG400)-Propylene glycol (PG)-EtOH-Cremophore-PBS (2/20/10/10/5/53% v/v). Compound A1-r or 4r (10 mg/kg) was administered separately by oral gavage. After dosing, approximately 50 μL of blood was collected from the maxillary vein at 5, 15, 30 minutes and 1, 2, 7, and 24 hr (5 mice/group/per time point). A total of three blood samples were collected, with the third blood sample a terminal collection. Plasma was separated by centrifugation at 4,000×g at 4° C. for 10 minutes. The collected plasma samples were stored at −80° C. until analysis. […]"}, "[3]": {"system": "22Rv1 tumor xenograft model of prostate cancer", "experiment": "22Rv1 tumor xenograft study", "type": "in vivo, NSG mice", "experimental": "Tumor xenograft study: All animal experiments were carried out according to approved Institutional Animal Care and Use Committee protocols at the University of Texas Southwestern Medical Center (Dallas, TX). Five-week-old female NSG mice (low circulating testosterone) were implanted with 3×10^6 22 Rv1 cells (ATCC, mycoplasma negative) in matrigel. When tumor volume reached approximately 125 mm^3 (day 11), mice were randomly divided into three groups of six mice. One group was treated with vehicle control PO (0.5% Methocel A4M+0.1% Tween 80)+vehicle IP (10% DMSO/10% cremophor EL/80% D5W). One group was treated with vehicle PO+IP 25 mg/kg A1-r in 10% DMSO/10% cremophor EL/80% D5W. One group was treated with vehicle PO+IP 50 mg/kg 4r in 10% DMSO/10% cremophor EL/80% D5W. Dosing was continued for a total of 26 days. Tumor volumes were measured twice a week with Vernier calipers, and tumor volume was calculated as (L×W^2)×3.14)/6 as previously reported. 2-3 hours after a final IP dose, animals were humanely euthanized, and tumors were collected, weighed, and frozen in liquid nitrogen after taking pictures."}, "[4]": {"experiment": "In vitro stability in simulated gastric fluid (SGF)", "type": "in vitro ADME", "conditions": "SGF for 1 h", "experimental": "as §1"}, "[5]": {"experiment": "In vitro metabolic stability in mouse liver microsomes", "type": "in vitro ADME", "conditions": "1 μg/mL", "experimental": "(§4) In vitro metabolic stability in liver microsomes: Metabolic stability was assessed using mouse and human liver microsomes, (XenoTech, LLC, Lenexa, KS). Incubation of A1-r and 4r with the microsome fractions was performed in triplicate utilizing a concentration of 1 μg/mL as previously described. Serial samples (40 μL) were collected at selected time intervals and quenched with 300 μL of acetonitrile and then spiked with 10 μL of IS (0.5 μg/mL). All the samples were vortexed and centrifuged at 13,000×g for 15 min, and the supernatant was collected and transferred to an autosampler vial and injected (2 μL) onto the LC-MS/MS system. Testosterone, 7-HC and diclofenac were used as positive controls to ensure that the microsomes and incubation conditions were appropriate to conduct metabolism studies."}, "[6]": {"experiment": "In vitro metabolic stability in human liver microsomes", "type": "in vitro ADME", "conditions": "1 μg/mL", "experimental": "as §4"}, "[7]": {"experiment": "In vitro stability in mouse plasma", "type": "in vitro ADME", "description": "as §2\nas §3, with “analysis. […]” for “analysis.”"}, "AKR1C1": {"biological_target": "AKR1C1 (Homo sapiens (Human), UniProt Q04828)", "sequence (Q04828 whole entry)": "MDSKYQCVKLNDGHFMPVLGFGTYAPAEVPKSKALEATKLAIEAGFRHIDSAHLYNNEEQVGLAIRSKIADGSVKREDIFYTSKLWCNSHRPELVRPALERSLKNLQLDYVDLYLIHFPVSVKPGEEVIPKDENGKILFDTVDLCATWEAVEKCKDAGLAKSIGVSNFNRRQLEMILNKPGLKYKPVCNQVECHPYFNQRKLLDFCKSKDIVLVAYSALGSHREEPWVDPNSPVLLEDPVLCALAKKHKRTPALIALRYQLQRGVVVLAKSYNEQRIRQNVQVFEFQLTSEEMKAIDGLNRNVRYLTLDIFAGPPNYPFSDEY", "experiment": "AKR enzyme inhibition assay, NADP+ dependent oxidation of S-tetralol, AKR1C1", "type": "biochemical", "conditions": "Table 2; recombinant enzyme, S-tetralol at Km; read-out: IC50 ± SD AKR1C1", "quoted_text": "(§5) Assay of enzyme activity: The dehydrogenase activities of AKR1C1, AKR1C2, and AKR1C3 were determined by measuring the formation of NADH formation at 340 nm using Beckman DU640 spectrophotometer. […] After continuously monitoring for 5 min, the increase in UV absorption using different concentrations of enzyme were recorded to calculate the initial velocity and determine enzyme specific activity. IC50 value determination: The inhibitory potency for each compound was represented by IC50 value and measured as described before. […] The concentration of S-tetralol used in the assays for each AKR1C isoform was equal to the Km value for the respective enzyme so that IC50 values could be directly compared assuming a competitive pattern of inhibition. […] In this equation, “range” is the fitted uninhibited value minus the “background”, and “S” is a slope factor. “I” is the concentration of inhibitor. The equation assumes that y falls with increasing “I”."}, "AKR1C4": {"biological_target": "AKR1C4 (Homo sapiens (Human), UniProt P17516)", "sequence (P17516 whole entry)": "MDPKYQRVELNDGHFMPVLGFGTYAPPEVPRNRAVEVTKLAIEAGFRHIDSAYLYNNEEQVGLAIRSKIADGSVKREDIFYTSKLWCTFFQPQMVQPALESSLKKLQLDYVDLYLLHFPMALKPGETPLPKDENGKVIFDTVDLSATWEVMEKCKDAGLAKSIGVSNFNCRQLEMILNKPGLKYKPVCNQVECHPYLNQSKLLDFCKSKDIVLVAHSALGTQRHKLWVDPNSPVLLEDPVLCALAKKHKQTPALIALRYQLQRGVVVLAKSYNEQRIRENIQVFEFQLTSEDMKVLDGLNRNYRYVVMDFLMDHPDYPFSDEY", "experiment": "AKR enzyme inhibition assay, AKR1C4", "type": "biochemical", "conditions": "Table 2; recombinant enzyme; read-out: IC50 ± SD AKR1C4", "quoted_text": "as §5"}, "AKR1C2": {"biological_target": "AKR1C2 (Homo sapiens (Human), UniProt P52895)", "sequence (P52895 whole entry)": "as the sequence (Q04828 whole entry) above, with T38V, R47H, L54V, C87S, V151M, R170H, Q172L counted along it", "experiment": "AKR enzyme inhibition assay, NADP+ dependent oxidation of S-tetralol, AKR1C2 counter-screen", "type": "biochemical", "conditions": "Table 2; recombinant enzyme, S-tetralol at Km; read-out: IC50 ± SD AKR1C2", "quoted_text": "(§6) Structure-Activity Relationship: The ability of compounds to inhibit AKR1C3 in the first instance were determined by measuring the NADP+ dependent oxidation of S-tetralol catalyzed by recombinant enzyme as described herein. […] Assay of enzyme activity: The dehydrogenase activities of AKR1C1, AKR1C2, and AKR1C3 were determined by measuring the formation of NADH formation at 340 nm using Beckman DU640 spectrophotometer. […] After continuously monitoring for 5 min, the increase in UV absorption using different concentrations of enzyme were recorded to calculate the initial velocity and determine enzyme specific activity. IC50 value determination: The inhibitory potency for each compound was represented by IC50 value and measured as described before. […] The concentration of S-tetralol used in the assays for each AKR1C isoform was equal to the Km value for the respective enzyme so that IC50 values could be directly compared assuming a competitive pattern of inhibition. […] In this equation, “range” is the fitted uninhibited value minus the “background”, and “S” is a slope factor. “I” is the concentration of inhibitor. The equation assumes that y falls with increasing “I”."}, "AKR1C3": {"biological_target": "AKR1C3 (Homo sapiens (Human), UniProt P42330)", "sequence (P42330 whole entry)": "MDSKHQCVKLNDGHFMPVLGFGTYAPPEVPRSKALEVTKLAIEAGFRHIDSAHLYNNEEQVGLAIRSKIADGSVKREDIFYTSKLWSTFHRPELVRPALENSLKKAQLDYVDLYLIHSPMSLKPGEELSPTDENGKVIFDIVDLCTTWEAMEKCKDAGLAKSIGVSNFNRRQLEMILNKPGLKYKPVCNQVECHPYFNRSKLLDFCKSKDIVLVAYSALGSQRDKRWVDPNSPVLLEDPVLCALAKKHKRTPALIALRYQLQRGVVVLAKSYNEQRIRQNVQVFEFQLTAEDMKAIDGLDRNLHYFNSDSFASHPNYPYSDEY", "experiment": "AKR enzyme inhibition assay, NADP+ dependent oxidation of S-tetralol, AKR1C3", "type": "biochemical", "conditions": "Table 2", "quoted_text": "as §6"}, "[8]": {"conditions": "after oral administration (10 mg/kg) of 4r, Balb/c mice, plasma, mean ± SD, n = 5"}, "[9]": {"conditions": "after oral administration (10 mg/kg) of A1-r, Balb/c mice, mean ± SD, n = 5"}, "[10]": {"conditions": "after oral administration (10 mg/kg) of A1-r, Balb/c mice, plasma, mean ± SD, n = 5"}}}
{"molecule": "COC(=O)/C=C/c1cc(C(=O)NCc2ccc(C)cc2)cc(-c2ccc3ncnn3c2)c1", "note": "[Compound 4r, Methyl (E)-3-(3-([1,2,4]triazolo[1,5-a]pyridin-6-yl)-5-((4-methylbenzyl)carbamoyl)phenyl)acrylate]", "values": [{"measurement": "stability in simulated intestinal fluid (SIF)", "setting": "[1]", "value": "stable"}, {"measurement": "AUC0-t", "setting": "[2]; [8]", "value": 36.416, "unit": "ng·h/mL"}, {"measurement": "Cmax", "setting": "[2]; [8]", "value": 92.796, "unit": "ng/mL"}, {"measurement": "Tmax", "setting": "[2]; [8]", "value": 19, "unit": "min"}, {"measurement": "detection in systemic circulation 1 hour post administration", "setting": "[2]; oral 10 mg/Kg 4r, 1 hour post administration", "value": "undetectable"}, {"measurement": "reduction of tumor volume", "setting": "[3]; 25 mg/Kg IP once a day for 26 days, 22Rv1 tumors in NSG mice", "value": "approximately 30%"}, {"measurement": "reduction of tumor burden", "setting": "[3]; 50 mg/Kg IP once a day for 26 days, 22Rv1 tumors in NSG mice", "value": "approximately 45%"}, {"measurement": "mouse body weight", "setting": "[3]; 25 and 50 mg/Kg IP once a day for 26 days, NSG 22Rv1 tumor-bearing mice", "value": "no observed loss of mouse body weight"}, {"measurement": "stability in simulated gastric fluid (SGF)", "setting": "[4]", "value": "stable"}, {"measurement": "degraded in MLM", "setting": "[5]", "value": "approximately 25%"}, {"measurement": "degraded in HLM", "setting": "[6]", "value": "approximately 25%"}, {"measurement": "time until reduced to below detectable limits in mouse plasma", "setting": "[7]; exposure to mouse plasma", "value": "≤ 30", "unit": "min"}, {"measurement": "stability in mouse plasma", "setting": "[7]; mouse plasma, 37° C.", "value": "unstable"}]}
{"molecule": "Cc1ccc(CNC(=O)c2cc(/C=C/C(=O)O)cc(-c3ccc4ncnn4c3)c2)cc1", "note": "[Compound A1-r, (E)-3-(3-([1,2,4]triazolo[1,5-a]pyridin-6-yl)-5-((4-methylbenzyl)carbamoyl)phenyl)acrylic acid]", "values": [{"measurement": "stability in simulated intestinal fluid (SIF)", "setting": "[1]", "value": "stable"}, {"measurement": "AUC0-t", "setting": "[2]; [8]", "value": 6382.8, "unit": "ng·h/mL"}, {"measurement": "Cmax", "setting": "[2]; [8]", "value": 11599.4, "unit": "ng/mL"}, {"measurement": "Tmax", "setting": "[2]; [8]", "value": 12, "unit": "min"}, {"measurement": "CI/F", "setting": "[2]; [9]", "value": 323, "unit": "mL/min/kg"}, {"measurement": "Extrapolated AUC %", "setting": "[2]; [9]", "value": 28.8, "unit": "%"}, {"measurement": "Vz/F", "setting": "[2]; [9]", "value": 405.0, "unit": "L/kg"}, {"measurement": "AUC0-INF", "setting": "[2]; [10]", "value": 515.1, "unit": "ng·h/mL"}, {"measurement": "AUC0-t", "setting": "[2]; [10]", "value": 367.6, "unit": "ng·h/mL"}, {"measurement": "Cmax", "setting": "[2]; [10]", "value": 174.8, "unit": "ng/mL"}, {"measurement": "Tmax", "setting": "[2]; [10]", "value": 6, "unit": "min"}, {"measurement": "t1/2", "setting": "[2]; [10]", "value": 864, "unit": "min"}, {"measurement": "detection at the last study point (24 hours)", "setting": "[2]; oral 10 mg/Kg 4r, 24 hours", "value": "detected"}, {"measurement": "time at which detected in plasma after oral administration", "setting": "[2]; oral 10 mg/Kg, male Balb/C mice", "value": "≤ 5", "unit": "min"}, {"measurement": "IC50", "setting": "AKR1C1", "value": "> 100", "unit": "µM"}, {"measurement": "stability in simulated gastric fluid (SGF)", "setting": "[4]", "value": "stable"}, {"measurement": "metabolic stability in MLM", "setting": "[5]; % parent remaining", "value": "stable"}, {"measurement": "IC50", "setting": "AKR1C4", "value": "43 ± 6", "unit": "µM"}, {"measurement": "IC50", "setting": "AKR1C2", "value": "62 ± 21", "unit": "µM"}, {"measurement": "Selectivity 1C2:1C3", "setting": "AKR1C3; ratio of AKR1C2 to AKR1C3 IC50", "value": 1216}, {"measurement": "IC50", "setting": "AKR1C3; recombinant enzyme, S-tetralol at Km, read-out: IC50 ± SD AKR1C3", "value": "0.051 ± 0.006", "unit": "µM"}, {"measurement": "metabolic stability in HLM", "setting": "[6]; % parent remaining", "value": "stable"}, {"measurement": "time stable in mouse plasma", "setting": "[7]; mouse plasma", "value": "over 240 minutes"}]}
